Results: patent US20230399314A1, “CD73 INHIBITOR AND USE THEREOF” (WUHAN HUMANWELL INNOVATIVE DRUG RESEARCH AND DEVELOPMENT …, priority 2020, published 2023)

Tests used:
[1] = biological target: CD73 bound to the surfaces of A375 cells (Homo sapiens (Human), UniProt P21589); assay: Inhibitory activity to CD73 enzyme bound to the surfaces of human melanoma A375 cells; assay type: cell-based; conditions: AMP 200 μM, 16 h
Method: The compound was diluted with serum-free DMEM to form a stock solution (5×) of an appropriate concentration gradient, the compound solution was added to the cells in the above 96-well plate according to 20 μL/well, and the mixture was placed in an incubator and pre-incubated for 30 min.
(§1) A375-bound CD73 inhibition rates of the compound at different concentrations were calculated according to the following formula, the concentration of the compound was taken as the X-axis, the inhibition rate was taken as the Y-axis, and an IC50 value of the compound in inhibiting A375-bound CD73 was calculated by using Prism software.

[2] = Plasma protein binding by equilibrium dialysis, human plasma; assay type: in vitro ADME; conditions: 37° C.
Method: (§2) Plasma protein binding rates of the compounds were detected by equilibrium dialysis (HTDialysis, HTD 96b). The compound was diluted with DMSO to form a 0.5 mM stock solution, and the stock solution was diluted 25 times with a 0.05 M sodium phosphate buffer to form a 20 μM working solution. Plasma was placed in a new 96-well plate according to 380 μL/well, then the working solution was added to and uniformly mixed with the plasma according to 20 μL/well, the final concentration of the compound was 1 μM, and each well contained 0.2% DMSO.
(§3) 100 μL of 0.05 M sodium phosphate buffer was added to a receiving side of each dialysis chamber (HTD 96b), and 100 μL of plasma containing the compound was added to a supply side. The dialysis apparatus was closed with a plastic lid, and incubated with shaking at 37° C. for 5 h.
(§4) After the incubation was completed, 25 μL of sample was collected respectively from the supply side and the receiving side of the dialysis chamber, and placed in a new 96-well plate, an equal volume of blank plasma was added to and uniformly mixed with each sample on the supply side, an equal volume of 0.05 M sodium phosphate buffer was added to and uniformly mixed with each sample on the receiving side. 200 μL of acetonitrile solution containing the internal standard was added to each well, the 96-well plate was vortex-shaken at 600 rpm for 10 min, and centrifuged at 5,594 g for 15 min (Thermo Multifuge×3R), 50 μL of supernatant was transferred to a new 96-well plate, and the sample was mixed with 50 μL of ultrapure water and subjected to LC-MS/MS analysis.
(§5) A plasma protein binding rate and a fraction unbound in plasma were calculated according to the following formulas:
(§6) % binding rate=100×([supply side concentration]5h−[receiving side concentration]5h)/[supply side concentration]5h; and
(§7) % fraction unbound in plasma=100−% binding rate.

[3] = Plasma protein binding by equilibrium dialysis, mouse plasma; assay type: in vitro ADME; conditions: 37° C.
Method: as §2, §3, §4, §5, §6, §7

[4] = Plasma protein binding by equilibrium dialysis, canine plasma; assay type: in vitro ADME; conditions: dog, 37° C.
Method: as §2, §3, §4, §5, §6, §7

Human CD4+ T cells = assay: Relieving AMP-induced proliferation inhibition of human CD4+ T cells (CCK8); assay type: cell-based; conditions: Homo sapiens, 120 h, AMP 0.3 mM, day 5
Method: On day 1 of the experiment, CD4^+ T cells (Allcells Shanghai, PB009-2F-C) were thawed, and inoculated into two replicate wells according to 3×10^4 cells/well and 50 μL/well. The compound was diluted with a complete medium to form a stock solution (4×) of an appropriate concentration gradient, the compound solution was added to the above cells according to 50 μL/well, and the mixture was pre-incubated at 37° C. for 30 min. […] Meanwhile, a positive reference group (Human CD4^+ T+IL-2+CD3/CD28 beads) and a negative reference group (Human CD4^+ T+IL-2+CD3/CD28 beads+AMP) were set. AMP (Sigma; A1752-5G) was diluted with a complete medium to form an AMP solution (4×), the AMP solution was added to the above cells according to 50 μL/well, the final concentration was 0.3 mM, and the mixture was incubated at 37° C. On day 3 of the experiment, the AMP solution was added to the above plate according to 20 μL/well, and the final concentration was 0.3 mM. On day 5, the proliferation of the cells was detected by using a CCK8 kit (DojinDO; CK04).
Inhibition rates of the compound at different concentrations in relieving AMP-induced proliferation inhibition of CD4^+ T cells were calculated according to the following formula, the concentration of the compound was taken as the X-axis, the inhibition rate was taken as the Y-axis, and an EC50 value of the compound in relieving the AMP-induced proliferation inhibition of CD4^+ T cells was calculated by using Prism software.

[5] = Pharmacokinetic test on mice; assay type: in vivo, male ICR mice; conditions: for half-life / AUC(0-t) / Cmax / Tmax / clearance / Vd: male, ICR, plasma, mouse; for AUC(0-t): read-out: AUC0-t; for Cmax: read-out: Cmax; for Tmax: read-out: Tmax; for Vd: read-out: Vz
Method: (§8) In a pharmacokinetic test on mice, male ICR mice of 20 g to 25 g were used and fasted overnight. 3 mice were selected for orally intragastric administration (10 mg/kg). Before administration, and 15 min, 30 min, 1 h, 2 h, 4 h, 8 h, and 24 h after administration, blood was sampled from each mouse. Another 3 mice were selected for intravenous injection administration (3 mg/kg), and before administration, and 15 min, 30 min, 1 h, 2 h, 4 h, 8 h, and 24 h after administration, blood was sampled from each mouse. The blood sample was centrifuged at 6,800 g and 2 to 8° C. for 6 min, and plasma was collected and stored at −80° C. The plasma of each time point was vortex-mixed for 1 min with an acetonitrile solution containing the internal standard with a volume 3-5 times that of the plasma of each time point, and centrifuged at 13,000 rpm and 4° C. for 10 min, a supernatant was collected and mixed with water with a volume 3 times that of the supernatant, and an appropriate amount of the mixed solution was used for LC-MS/MS analysis. The main pharmacokinetic parameters were analyzed by using a WinNonlin 7.0 non-compartmental model.

[6] = Pharmacokinetic test on dogs; assay type: in vivo, male Beagle dogs; conditions: for AUC(0-t) / Cmax / Tmax / half-life / clearance / Vd: male, Beagle, plasma, dog; for Vd: read-out: Vz
Method: as §8
In a pharmacokinetic test on dogs, male Beagle dogs of 8 to 10 kg were used and fasted overnight. 3 Beagle dogs were selected for orally intragastric administration (5 mg/kg). Another 3 Beagle dogs were selected for intravenous injection administration (1 mg/kg). Other operations were the same as the pharmacokinetic test on mice.

A375 melanoma = assay: In vivo efficacy on A375 melanoma (PBMC + A375 cells in NCG mice); conditions: for Mean ± SEM (tumor size): in mm³ (unit assumed)
Method: A375 cells in logarithmic growth phase were collected, cultured in Mitomycin C for 2 h, and washed three times with PBS. After 5 days of co-culture of PBMC and A375 cells, PBMC and freshly digested A375 cells were collected, 5×10^5 PBMC and 4×10^6 A375 cells were inoculated subcutaneously on the right side of NCG mice according to 0.2 mL/mouse (containing 50% Matrigel). After inoculation, the mice were randomly divided into a model group and an administration group according to body weight of the mice, tumor size and animal weight were measured and recorded before and during administration, and tumor sizes of the model group and the administration group were compared after treatment to determine the efficacy.

Human-CD73 enzyme = Human-CD73 enzyme (Homo sapiens (Human), UniProt P21589); assay: In vitro inhibitory activity to recombinant human CD73 enzyme (ATP-GLO); assay type: biochemical; conditions: Human-CD73 0.1 μg/mL, AMP 100 μM
Method: Human-CD73 (Novoprotein; C446) was diluted with Tris-MgCl2 buffer to form a stock solution (3×), which was placed in a 96-well plate according to 20 μL/well to obtain a final concentration of 0.1 μg/mL. The compound was diluted with Tris-MgCl2 buffer to form a stock solution (3×) of an appropriate concentration gradient, the compound solution was added to the above 96-well plate according to 20 μL/well and uniformly mixed with the Human-CD73 solution, and the mixture was incubated at the room temperature for 30 min. Meanwhile, a positive reference group (without the compound) and a negative reference group (without CD73) were set. AMP (Sigma; A1752-5G) was diluted with Tris-MgCl2 buffer to form a stock solution (3×), which was added to the above 96-well plate according to 20 μL/well to obtain a final concentration of 100 μM, and the mixture was uniformly mixed and incubated at 37° C. for 60 min; ATP (Sigma; A7699-1G) was diluted with Tris-MgCl2 buffer to form a stock solution (7×), which was added to the above 96-well plate according to 10 μL/well to obtain a final concentration of 100 μM, and the mixture was uniformly mixed, incubated for 5 min, and tested by using an ATP-GLO kit (Promega; G7573).
as §1, with “Human-CD73” for “A375-bound CD73”

[7] = po, orally intragastric 10 mg/kg
[8] = po, orally intragastric 5 mg/kg
[9] = compound 40 mg/kg + anti PD-1 10 mg/kg

Sequence of CD73 bound to the surfaces of A375 cells (P21589 27-574): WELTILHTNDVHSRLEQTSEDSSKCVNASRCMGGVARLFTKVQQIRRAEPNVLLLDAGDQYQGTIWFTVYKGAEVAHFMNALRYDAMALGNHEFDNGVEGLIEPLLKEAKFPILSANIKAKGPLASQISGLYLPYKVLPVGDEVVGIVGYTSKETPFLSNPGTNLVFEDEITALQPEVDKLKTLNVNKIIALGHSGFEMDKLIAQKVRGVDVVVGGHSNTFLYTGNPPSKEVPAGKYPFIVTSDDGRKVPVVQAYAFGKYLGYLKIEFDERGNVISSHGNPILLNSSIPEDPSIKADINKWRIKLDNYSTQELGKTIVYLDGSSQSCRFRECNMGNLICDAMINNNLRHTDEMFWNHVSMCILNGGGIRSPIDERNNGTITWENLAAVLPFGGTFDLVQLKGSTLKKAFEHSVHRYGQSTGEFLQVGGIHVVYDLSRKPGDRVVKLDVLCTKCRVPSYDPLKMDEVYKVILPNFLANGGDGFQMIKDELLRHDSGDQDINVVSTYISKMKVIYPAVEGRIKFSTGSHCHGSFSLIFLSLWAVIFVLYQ
Sequence of Human-CD73 enzyme (P21589 27-574): as above

Row | Molecule | IC50 [1] [µM] | fraction unbound at 5 h, 1 μM [2] | fraction unbound at 5 h, 1 μM [3] | fraction unbound at 5 h, 1 μM [4] | half-life [5, 7] [h] | AUC(0-t) [5, 7] [µg·h/mL] | Cmax [5, 7] [µg/mL] | Tmax [5, 7] [h] | AUC(0-t) [6, 8] [µg·h/mL] | Cmax [6, 8] [µg/mL] | Tmax [6, 8] [h] | half-life [6, 8] [h] | AUC(0-t) ([6]; intravenous injection 1 mg/kg) [µg·h/mL] | clearance ([6]; intravenous injection 1 mg/kg) [L/h/kg] | half-life ([6]; intravenous injection 1 mg/kg) [h] | Vd ([6]; intravenous injection 1 mg/kg) [L/kg] | clearance ([5]; intravenous injection 3 mg/kg) [L/h/kg] | half-life ([5]; intravenous injection 3 mg/kg) [h] | AUC(0-t) ([5]; intravenous injection 3 mg/kg) [µg·h/mL] | EC50 (Human CD4+ T cells) [µM] | further results
1 | O=c1[nH]cc(-c2cc([C@H]3C[C@@H]3CF)c(Cl)nn2)c(=O)[nH]1 [Compound 1, 5-(6-chloro-5-((1S,2S)-2-(fluoromethyl)cyclopropyl)pyridazin-3-yl)pyrimidine-2,4(1H,3H)-dione] | 0.0307 | 0.274 | 0.474 | 0.245 | 3.31 | 5.72 | 4.3 | 0.42 | 16.9 | 5.48 | 1.17 | 2.67 | 1.46 | 0.73 | 0.94 | 0.99 |  |  |  | 0.0719 | % TGI (A375 melanoma; [9]): 63.68%; Mean ± SEM (tumor size) (A375 melanoma; [9]): 713.7 ± 89.22
2 | O=c1[nH]cc(-c2cc([C@@H]3C[C@H]3C(F)(F)F)c(Cl)nn2)c(=O)[nH]1 [Compound 4, 5-(6-chloro-5-((1R,2R)-2-(trifluoromethyl)cyclopropyl)pyridazin-3-yl)pyrimidine-2,4(1H,3H)-dione] | 0.134 |  |  |  | 2.85 | 185 | 16.1 | 3 | 65.7 | 7.55 | 1.17 | 4.13 | 5.81 | 0.18 | 3.63 | 0.95 | 0.2 | 3.68 | 15.2 | 1.07 | IC50 (Human-CD73 enzyme): 0.0584 µM; Vd ([5]; intravenous injection 3 mg/kg): 1.05 L/kg; pharmacokinetic properties compared to the reference compounds ([5]; mice): significantly improved; exposure compared to the reference compounds ([6]; dogs): much higher
3 | Toripalimab [anti PD-1] |  |  |  |  |  |  |  |  |  |  |  |  |  |  |  |  |  |  |  |  | % TGI (A375 melanoma; anti PD-1 10 mg/kg alone): 25.08%; Mean ± SEM (tumor size) (A375 melanoma; anti PD-1 10 mg/kg alone): 1472 ± 194.9

Continued, in another order:

Row | IC50 [1] [µM] | fraction unbound at 5 h, 1 μM [2] | fraction unbound at 5 h, 1 μM [3] | fraction unbound at 5 h, 1 μM [4] | half-life [5, 7] [h] | AUC(0-t) [5, 7] [µg·h/mL] | Cmax [5, 7] [µg/mL] | Tmax [5, 7] [h] | AUC(0-t) [6, 8] [µg·h/mL] | Cmax [6, 8] [µg/mL] | Tmax [6, 8] [h] | half-life [6, 8] [h] | AUC(0-t) ([6]; intravenous injection 1 mg/kg) [µg·h/mL] | clearance ([6]; intravenous injection 1 mg/kg) [L/h/kg] | half-life ([6]; intravenous injection 1 mg/kg) [h] | Vd ([6]; intravenous injection 1 mg/kg) [L/kg] | clearance ([5]; intravenous injection 3 mg/kg) [L/h/kg] | half-life ([5]; intravenous injection 3 mg/kg) [h] | AUC(0-t) ([5]; intravenous injection 3 mg/kg) [µg·h/mL] | Molecule | EC50 (Human CD4+ T cells) [µM] | further results
4 | 0.0673 | 0.098 | 0.261 | 0.177 | 1.09 | 5.38 | 4.54 | 0.42 | 9 | 3.62 | 0.5 | 3.3 | 1.56 | 0.65 | 1.37 | 1.33 | 1.32 | 1.25 | 2.36 | O=c1[nH]cc(-c2cc([C@H]3C[C@@H]3C(F)F)c(Cl)nn2)c(=O)[nH]1 [Reference compound 2, 5-(6-chloro-5-((1S,2S)-2-(difluoromethyl)cyclopropyl)pyridazin-3-yl)pyrimidine-2,4(1H,3H)-dione, reference compound] | 0.0937 | IC50 (Human-CD73 enzyme): 0.0168 µM; Vd ([5]; intravenous injection 3 mg/kg): 2.4 L/kg
5 |  | 0.103 | 0.122 | 0.126 | 1.19 | 1.27 | 1.27 | 0.33 | 1.54 | 1.2 | 0.42 | 0.93 | 0.512 | 2.16 | 0.39 | 1.14 | 4.2 | 0.28 | 0.73 | Cc1nnc(-c2c[nH]c(=O)[nH]c2=O)cc1[C@H]1C[C@@H]1C(C)C [Reference compound 3, 5-(5-((1S,2R)-2-isopropylcyclopropyl)-6-methylpyridazin-3-yl)pyrimidine-2,4(1H,3H)-dione, reference compound] | 0.341 | Vd ([5]; intravenous injection 3 mg/kg): 1.67 L/kg; % TGI (A375 melanoma; [9]): 41.52%; Mean ± SEM (tumor size) (A375 melanoma; [9]): 1149 ± 167.8
